According to patent EP4302767A1, “OPHTHALMIC COMPOSITION COMPRISING ERIOCITRIN” (Skeye Pharma GmbH, priority 2022, dated 2024):

Columns and labels:
[1] = test system: Human corneal epithelial cells (hCEC); test: BrdU cell proliferation ELISA; format: cell-based
Protocol: (§1) Proliferation of hCEC was determined using a 5-bromo-2'-deoxyuridine (BrdU) ELISA in accordance with the manufacturers' recommendations (Merck KGaA, Darmstadt, Germany). In brief, approximately 7,000 cells were seeded onto a 96-well cell culture plate and incubated for 24h to achieve complete adherence of the cells. After 24 hours of incubation with 100 µl of corneal epithelial cell growth medium without its' supplement mix, hCECs were treated with eriocitrin and/or SCH772984 (Selleckchem, Houston, TX, USA), an inhibitor of ERK1/2 phosphorylation, both dissolved in DMSO. Following another 24 hours of incubation with BrdU labeling solution, cells were fixed and incubated with anti-BrdU antibodies according to the manufacturer's recommendations. BrdU incorporation into the DNA of hCECs was quantified by absorbance measurement at 450 nm.

[2] = test system: Human corneal epithelial cells (hCEC); test: Oxidative stress model (H2O2) with BrdU proliferation assay; format: cell-based; conditions: 24 h, Fig. 3, read-out: cell proliferation
Protocol: as §1
To determine potential anti-oxidative effects of eriocitrin, hCECs were incubated and treated analogous to the above-mentioned BrdU ELISA with minor modifications. To induce oxidative stress, hydrogen peroxide (H2O2) in a concentration of 100 µM was added to the treatment groups and an additional H2O2-only group was tested. Following another incubation of the hCECs for 24 hours, the BrdU assay was further performed according to the description above.

[3] = test system: Human corneal epithelial cells (hCEC); test: Cell scratch (wound healing / migration) assay in vitro; format: cell-based; conditions: 10 µM, Fig. 2
Protocol: To analyze hCEC migration in vitro, cells were cultured in corneal epithelial cell growth medium with supplement mix until confluence of the cells of a 6-well cell culture plate. Following an incubation period of 24 hours in cell culture medium without supplements, 5 linear scratches were performed in each well using a 200 µl pipette tip (Eppendorf AG, Hamburg, Germany). The hCECs were then incubated prospectively under treatment with eriocitrin or DMSO as a control for up to 48 hours. Reference images were acquired at the beginning of the incubation period using the phase contrast mode on an Axio Observer 7 (Carl Zeiss AG, Jena, Germany). Every 24 hours, follow-up images of different scratch sections were acquired. The size of the wound area was analyzed using a semi-automated analysis tool in ImageJ 1.53a (National Institute of Health, Bethesda, MD, USA).

[4] = 80°C for 30 min, pH 7; cited from earlier work
[5] = test system: Human corneal epithelial cells (hCEC); test: WST-1 cell viability assay; format: cell-based; conditions: any of the concentrations tested, 72 hours, compared to DMSO control; Fig. 1A
Protocol: (§2) Human corneal epithelial cells (hCEC; SCCE016; Merck Millipore, Burlington, MA, USA) were cultured in corneal epithelial cell growth medium with supplement mix (LGC Standards, Teddington, United Kingdom). Approximately 10,000 hCECs were seeded onto each well of a 96-well cell-culture dishes (NUNC, Langenselbold, Germany). After 24 hours of incubation with 100 µl of corneal epithelial cell growth medium without its' supplement mix (LGC Standards, Teddington, United Kingdom), hCECs were treated with different concentrations of eriocitrin (EC; Selleckchem, Houston, TX, USA) dissolved in dimethyl sulfoxide (DMSO; Carl Roth AG, Karlsruhe, Germany). Control groups were treated with DMSO only. Following another 72 hours of incubation, the cells were incubated with the water-soluble tetrazolium salt (WST-1; Hoffmann-La Roche AG, Basel, Switzerland) solution for 30 minutes. Substrate turnover was measured with an ELISA reader at 450 nm (Spectramax 190; Molecular Devices, Sunnyvale, CA, USA) and a reference at 690 nm.

[6] = WST-1 cell viability assay; format: cell-based, Human; conditions: human, corneal epithelial cells, 0.5 µM, DMSO control = 100 ± 12%, mean ± SD
Protocol: as §2

ERK1/2 = test: Western blot of ERK1/2 phosphorylation in corneal epithelial cells; format: cell-based; conditions: Homo sapiens, Corneal epithelial cell, 1 hour, compared to DMSO-only control, Fig. 4, read-out: pERK1/2 protein expression
Protocol: To analyze whether eriocitrin activates the extracellular signal-regulated kinase-1 and -2 (ERK1/2), human corneal epithelial cells were treated with 10 µM eriocitrin for 1 hour. Corneal proteins were isolated in radioimmunoprecipitation assay (RIPA) buffer. Protein concentration was measured with a bicinchoninic acid (BCA) assay according to the manufacturer's instructions (Thermo Fisher Scientific, Waltham, MA, USA). Up to 25 µg of total proteins were subjected to 8% SDS-PAGE. Following gel electrophoresis proteins were transferred onto a polyvinylidine fluoride (PVDF) membrane (Roche Holding, Basel, Switzerland) by semidry blotting. After blocking with 3% low fat milk in PBS-Tween (PBS-T) for one hour, membranes were incubated overnight with a rabbit-anti-pERK1/2 (1:1000; Cell Signaling Technology, Danvers, MA, USA) in PBS-T with 0.3% low fat milk. Alkaliphosphatase-conjugated mouse-anti-rabbit antibodies (1:1000, Jackson Immunoresearch Europe, UK) were used as secondary antibodies. Antibody hybridization was visualized using the CDP-Star substrate (Thermo Fisher) and documented with the Western Blot Reader iBright CL 1000 (Thermo Fisher). As a loading control, AP-conjugated anti-alpha-tubulin antibodies were used (1:1000, Merck). The densitometry of Western blot analyses was performed with the iBright Image software v.1.4.0 software (Thermo Fisher).

[7] = 'it is believed'; basis not stated; cited from earlier work

C[C@@H]1O[C@@H](OC[C@H]2O[C@@H](Oc3cc(O)c4c(c3)O[C@H](c3ccc(O)c(O)c3)CC4=O)[C@H](O)[C@@H](O)[C@@H]2O)[C@H](O)[C@H](O)[C@H]1O [eriocitrin, (2S)-3',4',5-trihydroxy-7-[α-L-rhamnopyranosyl-(1→6)-β-D-glucopyranosyloxy]flavan-4-one]
proliferation ([1]; 10 µM eriocitrin plus 100 nM SCH772984, 24 hours, Fig. 5): 104 ± 9% | proliferation ([1]; 10 µM, 24 hours, compared to DMSO treated controls, Fig. 5): 129 ± 11% | activity at 0.5 µM ([1]; Homo sapiens, HCEC, 0.5 µM, 24 hours, DMSO control = 100 ± 17%, Fig. 1B): 118 ± 39% | activity at 1 µM ([1]; Homo sapiens, HCEC, 1 µM, 24 hours, DMSO control = 100 ± 17%, Fig. 1B): 126 ± 33% | activity at 2.5 µM ([1]; Homo sapiens, HCEC, 2.5 µM, 24 hours, DMSO control = 100 ± 17%, Fig. 1B): 127 ± 29% | activity at 5 µM ([1]; Homo sapiens, HCEC, 5 µM, 24 hours, DMSO control = 100 ± 17%, Fig. 1B): 143 ± 36% | activity at 10 µM ([1]; Homo sapiens, HCEC, 10 µM, 24 hours, DMSO control = 100 ± 17%, Fig. 1B): 162 ± 49% | activity at 5 µM ([2]; 5 µM added to 100 µM H2O2, 24 hours, H2O2 control 81 ± 12%): 113 ± 9% | activity at 5 µM ([2]; 5 µM, 24 hours, without H2O2, compared to DMSO control): 117 ± 8% | activity at 10 µM ([2]; 10 µM added to 100 µM H2O2, 24 hours, H2O2 control 81 ± 12%): 115 ± 18% | activity at 10 µM ([2]; 10 µM, 24 hours, without H2O2, compared to DMSO control): 125 ± 18% | scratched hCEC area, difference to DMSO-only control ([3]; 24 hours of incubation, p > 0.9999): slight difference | remaining wound area ([3]; 48 hours of incubation, control 71.9 ± 7.7%): 64.5 ± 7.8% | eriocitrin molecules remain intact [4]: 60% | toxic effects on corneal epithelial cell viability [5]: did not show any toxic effects | viability at 72 h, 0.5 µM [6]: 110 ± 14% | fold induction at 10 µM (ERK1/2): 1.8 ± 0.9

COc1cc(O)c(CC=C(C)C)c(O)c1C(=O)/C=C/c1ccc(O)cc1 [xanthohumol, 1-[2,4-Dihydroxy-6-methoxy-3-(3-methyl-but-2-enyl)-phenyl]-3-(4-hydroxyphenyl)-propenon]
first pka [7]: about 7

O=C(Nc1ccc2[nH]nc(-c3ccncc3)c2c1)[C@@H]1CCN(CC(=O)N2CCN(c3ccc(-c4ncccn4)cc3)CC2)C1 [SCH772984, reference compound]
effect on eriocitrin-enhanced proliferation of corneal epithelial cells ([1]; 100 nM added to 10 µM eriocitrin, 24 hours, Fig. 5): completely blocked
